Test in all cases: combination Emax (second highest fraction inhibited in the dose matrix, 72 h); higher = more inhibition; extreme values may be limits of the assay
Experiment [1] deals with NCI-H524 (Small Cell Lung Carcinoma). Summed up: (§1)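 After 24 hours at 37°C and 5% CO2 in 1536-well plates, cells in DMEM/F12 or RPMI plus 10% FBS received two-drug dose matrices for 72 hours. Viability came from CellTiter-Glo 2.0 luminescence and was scaled as inhibition, anchored at 0 by vehicle wells and at 1 by blank wells. Combination Emax is taken as the second-highest inhibition in the matrix, and Bliss excess as the observed combination effect less EA + EB − EA·EB, with EA and EB the single-agent effects.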

For experiment [2], the system named is SAS (Oral Cavity Carcinoma). Summed up: as §1
Experiment [3] deals with ESS-1 (Other Solid Carcinomas). In outline: as §1
The subject of another experiment is NCI-H2722 (Mesothelioma). In outline: as §1
Experiment [4] has as its system OVCAR-5 (Ovarian Carcinoma). In outline:
as §1

For experiment [5], the system named is TGBC1TKB (Biliary Tract Carcinoma). Summed up:
as §1

Experiment [6] has as its system Hs-746T (Gastric Carcinoma). In outline:
as §1

The test system of experiment [7] is NCI-H209 (Small Cell Lung Carcinoma). In outline:
as §1

In experiment [8] the test system is Detroit562 (Head and Neck Carcinoma). In outline: as §1
The next experiment concerns A673 (Ewing's Sarcoma). In outline:
as §1

As for `CC1(C)CCC(CN2CCN(c3ccc(C(=O)NS(=O)(=O)c4ccc(NCC5CCOCC5)c([N+](=O)[O-])c4)c(Oc4cnc5[nH]ccc5c4)c3)CC2)=C(c2ccc(Cl)cc2)C1` [Venetoclax] + COc1cc(Nc2ncc3c(n2)-c2ccc(Cl)cc2C(c2c(F)cccc2OC)=NC3)ccc1C(=O)O [Alisertib] (first compound max 1 µM, 7x7, partner max 10 µM), the “combination Emax” value in experiment [1] was determined as 0.991; in experiment [2], 0.39; in [3], 0.957; in the experiment on NCI-H2722 (Mesothelioma) it was 0.281; in experiment [4], 0.335; in experiment [5], 0.403. Moreover, the “combination Emax” value in experiment [6] is 0.65; in experiment [7], 0.891; in experiment [8] it was 0.754; in the experiment on A673 (Ewing's Sarcoma) it was 0.835.

Turning to `CN(CCO)CC[C@H](CSc1ccccc1)Nc1ccc(S(=O)(=O)NC(=O)c2ccc(N3CCC([C@@H](O)c4ccccc4-c4ccc(Cl)cc4)CC3)cc2)cc1S(=O)(=O)C(F)(F)F` [AZD4320] + CN(C)CCCOc1ccc(-c2ccc3ncc4c(c3c2)n(C2CCOCC2)c(=O)n4C)cn1 [AZD0156] (first compound max 1 µM, 7x7, partner max 1 µM), the “combination Emax” value is 0.814 in [1]; 0.0348 in experiment [2]; 0.478 in experiment [3]; 0.285 in the experiment on NCI-H2722 (Mesothelioma); 0.164 in experiment [4]; 0.492 in experiment [5]. For the same compound, the “combination Emax” value in [6] stood at 0.38; in [7], 1; in experiment [8], 0.168; in the experiment with A673 (Ewing's Sarcoma) it was 0.929.

On to `CC1(C)CCC(CN2CCN(c3ccc(C(=O)NS(=O)(=O)c4ccc(NCC5CCOCC5)c([N+](=O)[O-])c4)c(Oc4cnc5[nH]ccc5c4)c3)CC2)=C(c2ccc(Cl)cc2)C1` [Venetoclax] + CCN(CCO)CCCOc1ccc2c(Nc3cc(CC(=O)Nc4cccc(F)c4)[nH]n3)ncnc2c1 [AZD2811] (first compound max 1 µM, 7x7, partner max 1 µM), for which the “combination Emax” value in [1] came to 0.985; in [2], 0.204; in experiment [3], 0.977; in the experiment with NCI-H2722 (Mesothelioma) it was 0.23; in [4] it was 0.315; in [5], 0.208. In addition, the “combination Emax” value in experiment [6] amounted to 0.161; in experiment [7] it was 0.974; in experiment [8] it was 0.52; with A673 (Ewing's Sarcoma), 0.861.

As for `CN(CCO)CC[C@H](CSc1ccccc1)Nc1ccc(S(=O)(=O)NC(=O)c2ccc(N3CCC([C@@H](O)c4ccccc4-c4ccc(Cl)cc4)CC3)cc2)cc1S(=O)(=O)C(F)(F)F` [AZD4320] + Cn1cnc2c(F)c(Nc3ccc(Br)cc3Cl)c(C(=O)NOCCO)cc21 [Selumetinib] (first compound max 1 µM, 7x7, partner max 3 µM), the “combination Emax” value amounted to 0.84 in [1]; 0.83 in experiment [2]; 0.851 in experiment [3]; 0.508 in the experiment on NCI-H2722 (Mesothelioma); 0.613 in experiment [4]; 0.679 in [5]. The “combination Emax” value in [6] came out at 0.77; in [7], 1; in experiment [8], 0.637; in the experiment on A673 (Ewing's Sarcoma), 0.971.

`CC1(C)CCC(CN2CCN(c3ccc(C(=O)NS(=O)(=O)c4ccc(NCC5CCOCC5)c([N+](=O)[O-])c4)c(Oc4cnc5[nH]ccc5c4)c3)CC2)=C(c2ccc(Cl)cc2)C1` [Venetoclax] + C[C@@H](Nc1cc(F)cc(F)c1)c1cc(C(=O)N(C)C)cc2c(=O)cc(N3CCOCC3)oc12 [AZD8186] (first compound max 1 µM, 7x7, partner max 3 µM): the “combination Emax” value is 0.535 in experiment [1]; 0.282 in experiment [2]; 0.814 in experiment [3]; 0.17 in the experiment with NCI-H2722 (Mesothelioma); 0.214 in experiment [4]; 0.526 in experiment [5]. Besides, the “combination Emax” value in [6] is 0.269; in experiment [7] it was 0.515; in [8], 0.137; with A673 (Ewing's Sarcoma), 0.558.

Turning to `NC1(C(=O)N[C@@H](CCO)c2ccc(Cl)cc2)CCN(c2ncnc3[nH]ccc23)CC1` [Capivasertib] + COc1nnc2ccc(N3CCC(c4ccc(OCCN5CCN(C)C(=O)[C@H]5C)cc4)CC3)nn12 [AZD5153] (first compound max 10 µM, 7x7, partner max 1 µM), the “combination Emax” value in [1] came out at 0.667; in experiment [2], 0.801; in experiment [3] it was 0.738; in the experiment on NCI-H2722 (Mesothelioma), 0.473; in experiment [4], 0.624; in [5], 0.39. Besides, the “combination Emax” value was determined as 0.599 in experiment [6], 0.539 in experiment [7], 0.925 in [8] and 0.434 in the experiment with A673 (Ewing's Sarcoma).

In the case of `Cc1c2c(nn1C)CSCc1cc(n(C)n1)CSc1cc(c3ccccc3c1)OCCCc1c(C(=O)O)n(C)c3c-2c(Cl)ccc13` [AZD5991] + C[C@@H]1COCCN1C2=NC(=NC(=C2)C3(CC3)[S@](=N)(=O)C)C4=C5C=CNC5=NC=C4 [AZD6738] (first compound max 1 µM, 7x7, partner max 10 µM), the “combination Emax” value in experiment [1] is 0.854; in experiment [2] it was 0.849; in experiment [3] it was 0.958; with NCI-H2722 (Mesothelioma) it was 0.401; in experiment [4], 0.645; in experiment [5], 0.403. In addition, the “combination Emax” value in experiment [6] was found to be 0.551; in experiment [7], 0.997; in [8] it was 0.902; with A673 (Ewing's Sarcoma), 0.823.

On to `Cc1c2c(nn1C)CSCc1cc(n(C)n1)CSc1cc(c3ccccc3c1)OCCCc1c(C(=O)O)n(C)c3c-2c(Cl)ccc13` [AZD5991] + Cc1cc2ncnn2cc1Nc1ncc2c(n1)n(C1CCOCC1)c(=O)n2C [AZD7648] (first compound max 1 µM, 7x7, partner max 10 µM), for which the “combination Emax” value worked out at 0.501 in experiment [1]; 0.286 in experiment [2]; 0.407 in experiment [3]; 0.234 in the experiment with NCI-H2722 (Mesothelioma); 0.256 in experiment [4]; 0.319 in experiment [5]. The “combination Emax” value in experiment [6] stood at 0.319; in [7] it was 0.431; in experiment [8] it was 0.422; with A673 (Ewing's Sarcoma), 0.471.

Consider `Cn1cnc2c(F)c(Nc3ccc(Br)cc3Cl)c(C(=O)NOCCO)cc21` [Selumetinib] + CCN(CCO)CCCOc1ccc2c(Nc3cc(CC(=O)Nc4cccc(F)c4)[nH]n3)ncnc2c1 [AZD2811] (first compound max 10 µM, 7x7, partner max 1 µM), for which the “combination Emax” value in [1] was 0.955; in experiment [2], 0.471; in [3] it was 0.462; in the experiment with NCI-H2722 (Mesothelioma), 0.186; in experiment [4], 0.507; in [5] it was 0.211. The “combination Emax” value in [6] was found to be 0.478; in [7] it was 0.431; in experiment [8] it was 0.743; in the experiment with A673 (Ewing's Sarcoma), 0.658.

Source of the values: the supplement of paper PMC11061612.
